Assay: method code SF, from Rulke, H.; Friedel, A.; Martin, E.; Kottke, K.; Grafe, I.; Kuhmstedt, H. (1991). Investigations on the acidity ond partition properties of 1-phenyl-5-mercaptotetrazoles. Pharmazie, 46(6)456-457.
A logP of 2.39 was found for `S=c1[nH]nnn1-c1cccc(Br)c1` in this work. A logP of 2.34 was found for `S=c1[nH]nnn1-c1cccc(Cl)c1` in this work. A logP of 1.99 was found for `O=[N+]([O-])c1ccc(-n2nn[nH]c2=S)cc1` in this work. A logP of 2.29 was found for `Cc1cccc(-n2nn[nH]c2=S)c1` in this work. A logP of 2.54 was found for `S=c1[nH]nnn1-c1ccc(Br)cc1` in this work. A logP of 2.68 was found for `S=c1[nH]nnn1-c1ccc(Cl)c(Cl)c1` in this work. A logP of 3.14 was found for `S=c1[nH]nnn1-c1ccccc1I` in this work. A logP of 2.09 was found for `S=c1[nH]nnn1-c1ccc(Cl)cc1` in this work. A logP of 2.41 was found for `S=c1[nH]nnn1-c1cccc(Cl)c1Cl` in this work. A logP of 2.89 was found for `S=c1[nH]nnn1-c1ccc(Cl)cc1Cl` in this work. A logP of 2.63 was found for `S=c1[nH]nnn1-c1ccc2ccccc2c1` in this work.

Reference: the SangsterLogP compilation
